Source: PubChem BioAssay (NCI)
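Protocol summary: plate cells (96-well), add compound at 5 concentrations, incubate 48 h, interpolate endpoints linearly. The concentration for full growth arrest is given as TGI.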

Tests used:
Experiment in all cases: NCI-60 cell line screen, 48 h
SK-OV-3 ovarian = system: SK-OV-3 ovarian
K-562 leukemia = system: K-562 leukemia
MOLT-4 leukemia = system: MOLT-4 leukemia
UACC-257 melanoma = system: UACC-257 melanoma
IGROV1 ovarian = system: IGROV1 ovarian
SF-268 CNS = system: SF-268 CNS
CCRF-CEM leukemia = system: CCRF-CEM leukemia
SF-539 CNS = system: SF-539 CNS
HS 578T breast = system: HS 578T breast
SN12C renal = system: SN12C renal
BT-549 breast = system: BT-549 breast
SR leukemia = system: SR leukemia
OVCAR-3 ovarian = system: OVCAR-3 ovarian
U251 CNS = system: U251 CNS
NCI-H23 lung = system: NCI-H23 lung
SK-MEL-28 melanoma = system: SK-MEL-28 melanoma
SNB-75 CNS = system: SNB-75 CNS
MCF7 breast = system: MCF7 breast
HCT-116 colon = system: HCT-116 colon
MDA-N = system: MDA-N
UO-31 renal = system: UO-31 renal
KM12 colon = system: KM12 colon
T-47D breast = system: T-47D breast
SNB-19 CNS = system: SNB-19 CNS
MALME-3M melanoma = system: MALME-3M melanoma
HOP-92 NSCLC = system: HOP-92 NSCLC
786-0 renal = system: 786-0 renal
HCC-2998 colon = system: HCC-2998 colon
NCI-H522 lung = system: NCI-H522 lung
LOX IMVI melanoma = system: LOX IMVI melanoma
OVCAR-4 ovarian = system: OVCAR-4 ovarian
HT29 colon = system: HT29 colon
MDA-MB-435 = system: MDA-MB-435
A549 NSCLC = system: A549 NSCLC
ACHN renal = system: ACHN renal
NCI-H460 lung = system: NCI-H460 lung
CAKI-1 renal = system: CAKI-1 renal
NCI-H226 lung = system: NCI-H226 lung
UACC-62 melanoma = system: UACC-62 melanoma
M14 melanoma = system: M14 melanoma
SW-620 colon = system: SW-620 colon
MDA-MB-231 breast = system: MDA-MB-231 breast
SK-MEL-5 melanoma = system: SK-MEL-5 melanoma
EKVX NSCLC = system: EKVX NSCLC
HOP-62 NSCLC = system: HOP-62 NSCLC
OVCAR-5 ovarian = system: OVCAR-5 ovarian
NCI/ADR-RES ovarian = system: NCI/ADR-RES ovarian
PC-3 prostate = system: PC-3 prostate
COLO 205 colon = system: COLO 205 colon
OVCAR-8 ovarian = system: OVCAR-8 ovarian
RXF 393 renal = system: RXF 393 renal
HCT-15 colon = system: HCT-15 colon
A498 renal = system: A498 renal
RPMI-8226 leukemia = system: RPMI-8226 leukemia
DU-145 prostate = system: DU-145 prostate
SF-295 CNS = system: SF-295 CNS
SK-MEL-2 melanoma = system: SK-MEL-2 melanoma
HL-60(TB) leukemia = system: HL-60(TB) leukemia
TK-10 renal = system: TK-10 renal

Measured: TGI

C(/C=N/NC1=NCCCN1)=N\NC1=NCCCN1
not listed: RXF 393 renal | HCT-15 colon | A498 renal | RPMI-8226 leukemia | DU-145 prostate | SF-295 CNS | SK-MEL-2 melanoma | HL-60(TB) leukemia | TK-10 renal
> 100 µM: all other assays above

CCO/C(O)=C(/C(=N)N1CCCC1)C(=O)Nc1ccc(Cl)cc1
not listed: SR leukemia | UO-31 renal | HOP-92 NSCLC | SK-MEL-5 melanoma
> 100 µM: all other assays above
